# Where two headings read alike, the source gives them in different places. Starred links: 1 amine or outer side, 2 acyl side, 3 side chain; linkers in the order of their positions; H or OH if unused. Positions of bridges follow the written chain, without caps; N, C: chain ends. Non-standard residues stand in square brackets, D forms with d. Residues, ends and D or L forms follow the SMILES beside them. *: point of attachment. X1 = CC[C@H](C)[C@@H](N[*:1])[C@@H](O)CC(=O)O[C@H](C(=O)[C@H](C)C(=O)[*:2])C(C)C; NMeY = CN[C@@H](Cc1ccc(O)cc1)C(=O)O; dNMeL = CN[C@H](CC(C)C)C(=O)O; Pyruvoyl = CC(=O)C(=O)*
# Key:
# [1] = system: CAKI-1 human renal tumor xenograft; assay: Aplidine with temsirolimus, CAKI-1 xenograft in athymic nude mice (Example 4); type: in vivo; conditions: for % Inhibition G4: temsirolimus 10 mg/kg/day; for % Inhibition G3: temsirolimus 20 mg/kg/day; for antitumor activity as single agent (monotherapy): temsirolimus 10 and 20 mg/kg/day; for % Inhibition G2: aplidine 0.06 mg/kg/day
# Protocol: Female athymic nude mice (Harlan Sprague Dawley, Madison, Wis.) were utilized for all experiments. Mice were implanted with a cell suspension when mice were 6-8 weeks of age. Animals were housed in ventilated rack caging with food and water ad libitum. The mice were acclimated for at least 5 days prior to tumor implantation. […] The tumor model used in this study was CAKI-1, which was implanted in the animals as disclosed in Example 2.
# Tumor measurements were determined as disclosed in Example 1. When tumor growth was within an average size range of 140±34 mg (mean±SD), mice were randomized into the treatment and control groups based on tumor weight by using LabCat® In Life module V 8.0 SP1 tumor tracking and measurement software.
# The treatment of CAKI-1-tumor-bearing mice was initiated on DPI (Day Post Implantation) 21. Body weights were recorded on treatment days and when tumor sizes were measured. In those days wherein the two drugs were administered the same day, the combination therapy groups were treated by co-administering the two drugs at the same time, with no attempt to sequence the treatments.
# (§1) Aplidine was provided in the form of vials of lyophilized aplidine powder which was reconstituted in Cremophor EL/ethanol/water (CEW) 15/15/70 to a concentration of 0.5 mg/ml. The aplidine solution in CEW was diluted in 0.9% Saline to the dosing formulation concentrations, being the final proportion of CEW of 0.18/0.18/0.84.
# Temsirolimus was provided in the form of vials containing a non-aqueous, ethanolic, sterile solution of temsirolimus, 25 mg/ml. […] Then, the solution was further diluted in 0.9% Saline to the dosing formulation concentrations.
# Tumor size measurements were recorded twice weekly from the treatment initiation until the termination of the study. Tumor growth inhibition was assessed comparing the mean tumor weight between the two agents in combination (aplidine and temsirolimus) against temsirolimus mean tumor weight at the different concentrations assayed.
# (§2) Mean, standard deviation and standard error of the mean were determined for tumor volume for all animal groups at all assessments. Student's t test was performed on tumor volumes at each measurement day, including at the end of the study, to determine whether there were any statistically significant differences between combination treatment groups and single monotherapy treatment groups.
# The definition and criteria for the evaluation of potentiation and the degree of additivity for the combination therapy were the same as those disclosed in Example 1.
# [2] = system: CAKI-1 human renal tumor xenograft; assay: Aplidine with sorafenib, CAKI-1 xenograft in athymic nude mice (Example 1); type: in vivo
# Protocol: Female athymic nude mice (Harlan Sprague Dawley, Madison, Wis.) were utilized for all experiments. Mice were implanted with tumor fragments or a cell suspension when mice were 5 weeks of age. Animals were housed in ventilated rack caging, 5 mice per cage, with food and water ad libitum. The mice were acclimated for 1 week prior to being implanted with tumor fragments or cell suspensions.
# Tumor measurements were determined by using Vernier calipers. The formula to calculate volume for a prolate ellipsoid was used to estimate tumor volume (mm^3) from 2-dimensional tumor measurements: Tumor volume (mm^3)=[L×W^2]÷2, where L is the length and it is the longest diameter in mm, and W is the width and it is the shortest diameter in mm of a tumor. Assuming unit density, volume was converted to weight (i.e., 1 mm^3=1 mg).
# Body weights were recorded on treatment days and when tumor sizes were measured. In those days wherein the two drugs were administered the same day, the combination therapy groups were treated by co-administering the two drugs at the same time, with no attempt to sequence the treatments.
# as §1, with “Then the” for “The”
# Tumor size measurements were recorded twice weekly from the treatment initiation until the termination of the study.
# as §2
# Determine the % of tumor growth inhibition, as 100−% T/C, for each of the drugs administered as monotherapy at the doses used in the combinations. % T/C was obtained by comparing the mean tumor weight in the treatment groups (T) to the mean tumor weight in the control group (C) (T/C×100%). • 2. The two scores were added together to determine the “expected response” if each agent produced the same response as it did when administered as monotherapy. • 3. This “expected response” was subtracted from the % of tumor growth inhibition determined for the combination therapy group: • a. A negative number meant that the effect of combining the two drugs was less than additive. • b. If the resulting number was close to zero, the effect of combining the two drugs was determined as additive. • c.
# [3] = CAKI-1 study, Example 4 (temsirolimus)
# [4] = NCI-H-460 study, Example 5 (temsirolimus)
# [5] = G3: temsirolimus 20 mg/kg/day IP
# [6] = G4: temsirolimus 10 mg/kg/day IP
# [7] = aplidine 0.040 and/or sorafenib 30 mg/kg/day
# [8] = aplidine 0.060 and/or sorafenib 60 mg/kg/day
# [9] = G2: aplidine 0.060 mg/kg/day IP
smiles,measurement,setting,value
CO[C@H]1C[C@@H]2CC[C@@H](C)[C@@](O)(O2)C(=O)C(=O)N2CCCC[C@H]2C(=O)O[C@H]([C@H](C)C[C@@H]2CC[C@@H](OC(=O)C(C)(CO)CO)[C@H](OC)C2)CC(=O)[C@H](C)/C=C(\C)[C@@H](O)[C@@H](OC)C(=O)[C@H](C)C[C@H](C)/C=C/C=C/C=C/1C [temsirolimus],effect on body weight / toxicity,[3],did not cause a significant decline in mean body weight
same,effect on body weight / toxicity,[4],did not cause a significant decline in mean body weight
same,% T/C on day 21,[1]; [5],98.3%
same,% T/C on day 24,[1]; [5],76.7%
same,% T/C on day 27,[1]; [5],75.3%
same,% T/C on day 30,[1]; [5],47.0%
same,% T/C on day 34,[1]; [5],42.2%
same,% T/C on day 38,[1]; [5],48.0%
same,% T/C on day 42,[1]; [5],51.9%
same,% T/C on day 45,[1]; [5],58.9%
same,% T/C on day 48,[1]; [5],63.6%
same,% T/C on day 56,[1]; [5],75.3%
same,% T/C on day 58,[1]; [5],78.8%
same,% T/C on day 21,[1]; [6],95.7%
same,% T/C on day 24,[1]; [6],69.9%
same,% T/C on day 27,[1]; [6],81.3%
same,% T/C on day 30,[1]; [6],53.2%
same,% T/C on day 34,[1]; [6],50.4%
same,% T/C on day 38,[1]; [6],51.1%
same,% T/C on day 42,[1]; [6],60.3%
same,% T/C on day 45,[1]; [6],66.7%
same,% T/C on day 48,[1]; [6],66.2%
same,% T/C on day 56,[1]; [6],73.4%
same,% T/C on day 58,[1]; [6],76.5%
same,% Inhibition G4,[1]; day 21,4.3%
same,% Inhibition G4,[1]; day 24,30.1%
same,% Inhibition G4,[1]; day 27,18.7%
same,% Inhibition G4,[1]; day 30,46.8%
same,% Inhibition G4,[1]; day 34,49.6%
same,% Inhibition G4,[1]; day 38,48.9%
same,% Inhibition G4,[1]; day 42,39.7%
same,% Inhibition G4,[1]; day 45,33.3%
same,% Inhibition G4,[1]; day 48,33.8%
same,% Inhibition G4,[1]; day 56,26.6%
same,% Inhibition G4,[1]; day 58,23.5%
same,% Inhibition G3,[1]; day 21,1.7%
same,% Inhibition G3,[1]; day 24,23.3%
same,% Inhibition G3,[1]; day 27,24.7%
same,% Inhibition G3,[1]; day 30,53.0%
same,% Inhibition G3,[1]; day 34,57.8%
same,% Inhibition G3,[1]; day 38,52.0%
same,% Inhibition G3,[1]; day 42,48.1%
same,% Inhibition G3,[1]; day 45,41.1%
same,% Inhibition G3,[1]; day 48,36.4%
same,% Inhibition G3,[1]; day 56,24.7%
same,% Inhibition G3,[1]; day 58,21.2%
same,antitumor activity as single agent (monotherapy),[1],did not meet the NCI criteria for activity
CNC(=O)c1cc(Oc2ccc(NC(=O)Nc3ccc(Cl)c(C(F)(F)F)c3)cc2)ccn1 [sorafenib],effect on body weight / toxicity,"mouse, in vivo",did not cause a significant decline in mean body weight
same,% T/C on day 7,[2]; [7],116.6%
same,% T/C on day 9,[2]; [7],130.2%
same,% T/C on day 13,[2]; [7],105.4%
same,% T/C on day 21,[2]; [7],113.0%
same,% T/C on day 23,[2]; [7],117.1%
same,% T/C on day 28,[2]; [7],90.3%
same,% T/C on day 31,[2]; [7],84.0%
same,% T/C on day 34,[2]; [7],86.0%
same,% T/C on day 37,[2]; [7],92.8%
same,% T/C on day 41,[2]; [7],98.0%
same,% T/C on day 44,[2]; [7],105.8%
same,% T/C on day 49,[2]; [7],102.8%
same,% T/C on day 7,[2]; [8],100.6%
same,% T/C on day 9,[2]; [8],128.9%
same,% T/C on day 13,[2]; [8],104.5%
same,% T/C on day 21,[2]; [8],121.2%
same,% T/C on day 23,[2]; [8],116.6%
same,% T/C on day 28,[2]; [8],110.5%
same,% T/C on day 31,[2]; [8],105.2%
same,% T/C on day 34,[2]; [8],110.2%
same,% T/C on day 37,[2]; [8],119.5%
same,% T/C on day 41,[2]; [8],120.5%
"CC[C@H](C)[C@H]1NC(=O)[C@@H](NC(=O)[C@@H](CC(C)C)N(C)C(=O)[C@@H]2CCCN2C(=O)C(C)=O)[C@@H](C)OC(=O)[C@H](Cc2ccc(OC)cc2)N(C)C(=O)[C@@H]2CCCN2C(=O)[C@H](CC(C)C)NC(=O)[C@@H](C)C(=O)[C@H](C(C)C)OC(=O)C[C@@H]1O [aplidine, dehydrodidemnin B] (Pyruvoyl-P[dNMeL]T[X1]LP[NMeY](Me); ester 3-C)",effect on body weight / toxicity,"A498 study, Example 2 (sunitinib)",did not cause a significant decline in mean body weight
same,effect on body weight / toxicity,"CAKI-1 study, Example 1 (sorafenib)",did not cause a significant decline in mean body weight
same,effect on body weight / toxicity,"CAKI-1 study, Example 2 (sunitinib)",did not cause a significant decline in mean body weight
same,effect on body weight / toxicity,[3],did not cause a significant decline in mean body weight
same,effect on body weight / toxicity,"HepG2 study, Example 6 (sorafenib)",did not cause a significant decline in mean body weight
same,effect on body weight / toxicity,"LOX-IMVI study, Example 7 (sorafenib)",did not cause a significant decline in mean body weight
same,effect on body weight / toxicity,"MRI-H-121 study, Example 2 (sunitinib)",did not cause a significant decline in mean body weight
same,effect on body weight / toxicity,[4],did not cause a significant decline in mean body weight
same,% T/C on day 21,[1]; [9],98.2%
same,% T/C on day 24,[1]; [9],94.6%
same,% T/C on day 27,[1]; [9],75.6%
same,% T/C on day 30,[1]; [9],66.0%
same,% T/C on day 34,[1]; [9],81.0%
same,% T/C on day 38,[1]; [9],91.1%
same,% T/C on day 42,[1]; [9],84.1%
same,% T/C on day 45,[1]; [9],80.7%
same,% T/C on day 48,[1]; [9],80.1%
same,% T/C on day 56,[1]; [9],89.8%
same,% T/C on day 58,[1]; [9],89.9%
same,% Inhibition G2,[1]; day 21,1.8%
same,% Inhibition G2,[1]; day 24,5.4%
same,% Inhibition G2,[1]; day 27,24.4%
same,% Inhibition G2,[1]; day 30,34.0%
same,% Inhibition G2,[1]; day 34,19.0%
same,% Inhibition G2,[1]; day 38,8.9%
same,% Inhibition G2,[1]; day 42,15.9%
same,% Inhibition G2,[1]; day 45,19.3%
same,% Inhibition G2,[1]; day 48,19.9%
same,% Inhibition G2,[1]; day 56,10.2%
same,% Inhibition G2,[1]; day 58,10.1%
same,antitumor activity as single agent (monotherapy),[1],inactive
same,% T/C on day 7,[2]; [7],115.8%
same,% T/C on day 9,[2]; [7],124.7%
same,% T/C on day 13,[2]; [7],101.5%
same,% T/C on day 16,[2]; [7],108.2%
same,% T/C on day 21,[2]; [7],104.9%
same,% T/C on day 23,[2]; [7],104.3%
same,% T/C on day 28,[2]; [7],104.6%
same,% T/C on day 31,[2]; [7],96.8%
same,% T/C on day 34,[2]; [7],100.9%
same,% T/C on day 37,[2]; [7],108.7%
same,% T/C on day 41,[2]; [7],109.5%
same,% T/C on day 44,[2]; [7],108.4%
same,% T/C on day 49,[2]; [7],104.4%
same,% T/C on day 7,[2]; [8],103.9%
same,% T/C on day 9,[2]; [8],113.8%
same,% T/C on day 13,[2]; [8],101.6%
same,% T/C on day 16,[2]; [8],105.7%
same,% T/C on day 21,[2]; [8],108.5%
same,% T/C on day 23,[2]; [8],109.0%
same,% T/C on day 28,[2]; [8],107.5%
same,% T/C on day 31,[2]; [8],100.3%
same,% T/C on day 34,[2]; [8],101.8%
same,% T/C on day 37,[2]; [8],107.7%
same,% T/C on day 41,[2]; [8],103.1%
same,% T/C on day 44,[2]; [8],99.4%
same,% T/C on day 49,[2]; [8],96.5%
same,antitumor activity as single agent (monotherapy),[2]; doses and schedules tested,inactive

# Reference: patent US20110009335A1, “Anticancer Treatments” (priority 2008, published 2011)
